Source: patent US20260232767A1, “INTERLEUKIN-23 RECEPTOR ANTAGONIST PEPTIDES FOR USE IN THE TREATMENT OF PSORIASIS” (Janssen Pharmaceutica NV, priority 2023, published 2026)

Test system: subjects with moderate-to-severe plaque psoriasis
Experiment: PSSD symptom and sign scores, Example 2
Assay type: in vivo, human
Conditions: for Change from Baseline in PSSD Sign Score, LSMean / Change from Baseline in PSSD Symptom Score, LSMean: MMRM

CC(=O)NCCCC[C@@H]1NC(=O)[C@H](Cc2c[nH]c3c(C)cccc23)NC(=O)[C@H]([C@@H](C)O)NC(=O)[C@H](CC(N)=O)NC(=O)[C@@H](NC(C)=O)C(C)(C)SSC(C)(C)[C@@H](C(=O)N[C@@H](Cc2ccc(OCCN)cc2)C(=O)N[C@@H](Cc2ccc3ccccc3c2)C(=O)NC2(C(=O)N[C@@H](CCC(=O)O)C(=O)N[C@@H](CC(N)=O)C(=O)N[C@@H](Cc3cccnc3)C(=O)N(C)CC(N)=O)CCOCC2)NC1=O [IL-23 receptor antagonist peptide, Ac-[Pen]*-N-T-[W(7-Me)]-[Lys(Ac)]-[Pen]*-Phe[4-(2-aminoethoxy)]-[2-Nal]-[THP]-E-N-[3-Pal]-Sarc-NH2 (*[Pen]-[Pen]* formdisulfidebond)]
Change from Baseline in PSSD Symptom Score, Mean (Week 4, 50 mg QD): −23.6 | Change from Baseline in PSSD Symptom Score, Median (Week 4, 50 mg QD): −23.0 | Change from Baseline in PSSD Sign Score, LSMean (Week 4, 50 mg QD): −28.0 | Change from Baseline in PSSD Symptom Score, LSMean (Week 4, 50 mg QD): −23.4 | Change from Baseline in PSSD Sign Score, Mean (Week 4, 100 mg BID): −33.3 | Change from Baseline in PSSD Sign Score, Median (Week 4, 100 mg BID): −32.0 | Change from Baseline in PSSD Symptom Score, Mean (Week 4, 100 mg BID): −26.1 | Change from Baseline in PSSD Symptom Score, Median (Week 4, 100 mg BID): −22.0 | Subjects Achieving PSSD Symptom Score 0 (%) (Week 4, 100 mg BID, Baseline Symptom Score ≥1, N=42): (4.8%) | Change from Baseline in PSSD Sign Score, LSMean (Week 4, 100 mg BID): −32.9 | Change from Baseline in PSSD Symptom Score, LSMean (Week 4, 100 mg BID): −24.4 | Change from Baseline in PSSD Sign Score, Mean (Week 4, 100 mg QD): −31.1 | Change from Baseline in PSSD Sign Score, Median (Week 4, 100 mg QD): −32.5 | Change from Baseline in PSSD Symptom Score, Mean (Week 4, 100 mg QD): −19.4 | Change from Baseline in PSSD Symptom Score, Median (Week 4, 100 mg QD): −17.0 | Subjects Achieving PSSD Sign Score 0 (%) (Week 4, 100 mg QD, Baseline Sign Score ≥1, N=43): (2.3%) | Subjects Achieving PSSD Symptom Score 0 (%) (Week 4, 100 mg QD, Baseline Symptom Score ≥1, N=43): (2.3%) | Change from Baseline in PSSD Sign Score, LSMean (Week 4, 100 mg QD): −33.8 | Change from Baseline in PSSD Symptom Score, LSMean (Week 4, 100 mg QD): −24.5 | Change from Baseline in PSSD Sign Score, Mean (Week 8, 25 mg BID): −33.8 | Change from Baseline in PSSD Sign Score, Median (Week 8, 25 mg BID): −38.0 | Change from Baseline in PSSD Symptom Score, Mean (Week 8, 25 mg BID): −27.5 | Change from Baseline in PSSD Symptom Score, Median (Week 8, 25 mg BID): −22.0 | Subjects Achieving PSSD Sign Score 0 (%) (Week 8, 25 mg BID, Baseline Sign Score ≥1, N=41): (2.4%) | Subjects Achieving PSSD Symptom Score 0 (%) (Week 8, 25 mg BID, Baseline Symptom Score ≥1, N=41): (7.3%) | Change from Baseline in PSSD Sign Score, LSMean (Week 8, 25 mg BID): −34.1 | Change from Baseline in PSSD Symptom Score, LSMean (Week 8, 25 mg BID): −27.5 | Change from Baseline in PSSD Sign Score, Mean (Week 8, 25 mg QD): −33.0 | Change from Baseline in PSSD Sign Score, Median (Week 8, 25 mg QD): −40.0 | Change from Baseline in PSSD Symptom Score, Mean (Week 8, 25 mg QD): −32.3 | Change from Baseline in PSSD Symptom Score, Median (Week 8, 25 mg QD): −32.0 | Subjects Achieving PSSD Sign Score 0 (%) (Week 8, 25 mg QD, Baseline Sign Score ≥1, N=43): (4.7%) | Subjects Achieving PSSD Symptom Score 0 (%) (Week 8, 25 mg QD, Baseline Symptom Score ≥1, N=43): (9.3%) | Change from Baseline in PSSD Sign Score, LSMean (Week 8, 25 mg QD): −29.0 | Change from Baseline in PSSD Symptom Score, LSMean (Week 8, 25 mg QD): −27.1 | Change from Baseline in PSSD Sign Score, Mean (Week 8, 50 mg QD): −39.7 | Change from Baseline in PSSD Sign Score, Median (Week 8, 50 mg QD): −40.5 | Change from Baseline in PSSD Symptom Score, Mean (Week 8, 50 mg QD): −35.0 | Change from Baseline in PSSD Symptom Score, Median (Week 8, 50 mg QD): −36.0 | Subjects Achieving PSSD Sign Score 0 (%) (Week 8, 50 mg QD, Baseline Sign Score ≥1, N=43): (7.0%) | Subjects Achieving PSSD Symptom Score 0 (%) (Week 8, 50 mg QD, Baseline Symptom Score ≥1, N=42): (9.5%) | Change from Baseline in PSSD Sign Score, LSMean (Week 8, 50 mg QD): −40.1 | Change from Baseline in PSSD Symptom Score, LSMean (Week 8, 50 mg QD): −34.3 | Change from Baseline in PSSD Sign Score, Mean (Week 8, 100 mg BID): −48.3 | Change from Baseline in PSSD Sign Score, Median (Week 8, 100 mg BID): −52.0 | Change from Baseline in PSSD Symptom Score, Mean (Week 8, 100 mg BID): −41.7 | Change from Baseline in PSSD Symptom Score, Median (Week 8, 100 mg BID): −42.0 | Subjects Achieving PSSD Sign Score 0 (%) (Week 8, 100 mg BID, Baseline Sign Score ≥1, N=42): (9.5%) | Subjects Achieving PSSD Symptom Score 0 (%) (Week 8, 100 mg BID, Baseline Symptom Score ≥1, N=42): (16.7%) | Change from Baseline in PSSD Sign Score, LSMean (Week 8, 100 mg BID): −47.5 | Change from Baseline in PSSD Symptom Score, LSMean (Week 8, 100 mg BID): −39.2 | Change from Baseline in PSSD Sign Score, Mean (Week 8, 100 mg QD): −40.2 | Change from Baseline in PSSD Sign Score, Median (Week 8, 100 mg QD): −43.0 | Change from Baseline in PSSD Symptom Score, Mean (Week 8, 100 mg QD): −27.8 | Change from Baseline in PSSD Symptom Score, Median (Week 8, 100 mg QD): −26.0 | Subjects Achieving PSSD Sign Score 0 (%) (Week 8, 100 mg QD, Baseline Sign Score ≥1, N=43): (7.0%) | Subjects Achieving PSSD Symptom Score 0 (%) (Week 8, 100 mg QD, Baseline Symptom Score ≥1, N=43): (14.0%) | Change from Baseline in PSSD Sign Score, LSMean (Week 8, 100 mg QD): −43.2 | Change from Baseline in PSSD Symptom Score, LSMean (Week 8, 100 mg QD): −33.3 | Change from Baseline in PSSD Sign Score, Mean (Week 12, 25 mg BID): −38.5 | Change from Baseline in PSSD Sign Score, Median (Week 12, 25 mg BID): −40.0 | Change from Baseline in PSSD Symptom Score, Mean (Week 12, 25 mg BID): −32.0 | Change from Baseline in PSSD Symptom Score, Median (Week 12, 25 mg BID): −28.0 | Subjects Achieving PSSD Sign Score 0 (%) (Week 12, 25 mg BID, Baseline Sign Score ≥1, N=41): (7.3%) | Subjects Achieving PSSD Symptom Score 0 (%) (Week 12, 25 mg BID, Baseline Symptom Score ≥1, N=41): (7.3%) | Change from Baseline in PSSD Sign Score, LSMean (Week 12, 25 mg BID): −39.0 | Change from Baseline in PSSD Symptom Score, LSMean (Week 12, 25 mg BID): −32.3 | Change from Baseline in PSSD Sign Score, Mean (Week 12, 25 mg QD): −34.8 | Change from Baseline in PSSD Sign Score, Median (Week 12, 25 mg QD): −40.0 | Change from Baseline in PSSD Symptom Score, Mean (Week 12, 25 mg QD): −31.5 | Change from Baseline in PSSD Symptom Score, Median (Week 12, 25 mg QD): −34.0 | Subjects Achieving PSSD Symptom Score 0 (%) (Week 12, 25 mg QD, Baseline Symptom Score ≥1, N=43): (14.0%) | Change from Baseline in PSSD Sign Score, LSMean (Week 12, 25 mg QD): −30.7 | Change from Baseline in PSSD Symptom Score, LSMean (Week 12, 25 mg QD): −25.8 | Change from Baseline in PSSD Sign Score, Mean (Week 12, 50 mg QD): −42.5 | Change from Baseline in PSSD Sign Score, Median (Week 12, 50 mg QD): −46.0 | Change from Baseline in PSSD Symptom Score, Mean (Week 12, 50 mg QD): −36.3 | Change from Baseline in PSSD Symptom Score, Median (Week 12, 50 mg QD): −37.0 | Subjects Achieving PSSD Sign Score 0 (%) (Week 12, 50 mg QD, Baseline Sign Score ≥1, N=43): (4.7%) | Subjects Achieving PSSD Symptom Score 0 (%) (Week 12, 50 mg QD, Baseline Symptom Score ≥1, N=42): (19.0%) | Change from Baseline in PSSD Sign Score, LSMean (Week 12, 50 mg QD): −43.0 | Change from Baseline in PSSD Symptom Score, LSMean (Week 12, 50 mg QD): −35.7 | Change from Baseline in PSSD Sign Score, Mean (Week 12, 100 mg BID): −49.9 | Change from Baseline in PSSD Sign Score, Median (Week 12, 100 mg BID): −53.0 | Change from Baseline in PSSD Symptom Score, Mean (Week 12, 100 mg BID): −42.3 | Change from Baseline in PSSD Symptom Score, Median (Week 12, 100 mg BID): −41.0 | Subjects Achieving PSSD Sign Score 0 (%) (Week 12, 100 mg BID, Baseline Sign Score ≥1, N=42): (11.9%) | Subjects Achieving PSSD Symptom Score 0 (%) (Week 12, 100 mg BID, Baseline Symptom Score ≥1, N=42): (26.2%) | Change from Baseline in PSSD Sign Score, LSMean (Week 12, 100 mg BID): −48.8 | Change from Baseline in PSSD Symptom Score, LSMean (Week 12, 100 mg BID): −39.5 | Change from Baseline in PSSD Sign Score, Mean (Week 12, 100 mg QD): −39.1 | Change from Baseline in PSSD Sign Score, Median (Week 12, 100 mg QD): −45.0 | Change from Baseline in PSSD Symptom Score, Mean (Week 12, 100 mg QD): −27.9 | Change from Baseline in PSSD Symptom Score, Median (Week 12, 100 mg QD): −27.0 | Subjects Achieving PSSD Sign Score 0 (%) (Week 12, 100 mg QD, Baseline Sign Score ≥1, N=43): (7.0%) | Subjects Achieving PSSD Symptom Score 0 (%) (Week 12, 100 mg QD, Baseline Symptom Score ≥1, N=43): (20.9%) | Change from Baseline in PSSD Sign Score, LSMean (Week 12, 100 mg QD): −42.2 | Change from Baseline in PSSD Symptom Score, LSMean (Week 12, 100 mg QD): −34.7 | Change from Baseline in PSSD Sign Score, Mean (Week 16, 25 mg BID): −41.8 | Change from Baseline in PSSD Sign Score, Median (Week 16, 25 mg BID): −36.5 | Change from Baseline in PSSD Symptom Score, Mean (Week 16, 25 mg BID): −34.0 | Change from Baseline in PSSD Symptom Score, Median (Week 16, 25 mg BID): −28.0 | Subjects Achieving PSSD Sign Score 0 (%) (Week 16, 25 mg BID, Baseline Sign Score ≥1, N=41): (9.8%) | Subjects Achieving PSSD Symptom Score 0 (%) (Week 16, 25 mg BID, Baseline Symptom Score ≥1, N=41): (17.1%) | Change from Baseline in PSSD Sign Score, LSMean (Week 16, 25 mg BID): −40.9 | Change from Baseline in PSSD Symptom Score, LSMean (Week 16, 25 mg BID): −32.7 | Change from Baseline in PSSD Sign Score, Mean (Week 16, 25 mg QD): −38.6 | Change from Baseline in PSSD Sign Score, Median (Week 16, 25 mg QD): −43.0 | Change from Baseline in PSSD Symptom Score, Mean (Week 16, 25 mg QD): −35.8 | Change from Baseline in PSSD Symptom Score, Median (Week 16, 25 mg QD): −34.0
